# Measured values as given in patent US12662451B2, “Chemical compounds and uses thereof” (GLAXOSMITHKLINE INTELLECTUAL PROPERTY (NO.4) LIMITED, priority 2023, dated 2026).
# Counter-ions that a name gives are not always drawn.
# Molecular target: T1, recombinant full-length WRN protein (1-1432) (Homo sapiens, UniProt Q14191)
# T1 construct: recombinant full-length WRN protein (1-1432)
# Assay: WRN unwinding activity, fluorogenic 384-well assay (Example A)
# Type: biochemical
# Conditions: WRN unwinding activity, 4 hr; Table 2; read-out: 4 hr UNW pIC50 (converted)
# Method: Functional WRN unwinding activity can be measured using a fluorogenic plate based 384 well assay configured to measure the separation of labeled double stranded DNA substrate. Compounds were dosed out in neat DMSO with a 1:3 serial dilution scheme. 100 nL of compound was stamped into Greiner low volume black assay plates (Greiner Cat #784076) using the Echo Acoustic Dispenser to generate assay ready plates. All solutions were prepared in assay buffer (25 mM TRIS (pH8.0), 5 mM NaCl, 2 mM MgCl2, 1 mM DTT, 0.05% BSA) for this 10 μL low volume reaction. To prepare the solutions, a 2×WRN Enzyme cocktail was made containing 200 pM of recombinant full-length WRN protein (1-1432). A 2× Substrate cocktail was made to consist of both 200 μM ATP (any ultrapure ATP sample) and 12 nM of the fluorescent quenched labeled double stranded DNA oligomer (IDT Custom synthesis; 5′-5IABkFQ (SEQ ID NO. 1)/GCACTGGCCGTCGTTTTACGGTCGTGACT-3′ (SEQ ID NO. 2): 5′-TTTTTTACTTAACGACGGCCAGTGC (SEQ ID NO. 3)/36-TAMTSP/-3′ (SEQ ID NO. 4)). To start the reaction, 5 μL of assay buffer was added to a single column to serve as the low control. Following this, 5 μL of 2×WRN Enzyme was added in all wells except the buffer low control wells. The reaction plate was covered and incubated at ambient temperature for 4 hours to allow for time dependent inhibition if it existed. After 4 hours, the addition of 5 μL of 2×-ATP/DNA substrate cocktail was added across all wells of the assay plate. This initiated the reaction, as the plate was incubated at ambient temperature for 60 minutes for the unwinding reaction to occur. A 10 mM EDTA solution was prepared and added at 5 μL across the entire plate after 60 minutes to quench the samples for an endpoint measurement. Fluorescent intensity was measured using excitation and emission wavelengths of 525 nm and 598 nm, respectively. High florescent intensity (DMSO with buffer) represents full inhibition of unwinding activity and low florescent intensity (DMSO with enzyme) represents no inhibition of unwinding activity. The potency of the compounds was determined using a four-parameter inhibition model to generate pIC50, Hill Slope, maximum inhibition (see Table 2).
# T1 sequence (Q14191 whole entry): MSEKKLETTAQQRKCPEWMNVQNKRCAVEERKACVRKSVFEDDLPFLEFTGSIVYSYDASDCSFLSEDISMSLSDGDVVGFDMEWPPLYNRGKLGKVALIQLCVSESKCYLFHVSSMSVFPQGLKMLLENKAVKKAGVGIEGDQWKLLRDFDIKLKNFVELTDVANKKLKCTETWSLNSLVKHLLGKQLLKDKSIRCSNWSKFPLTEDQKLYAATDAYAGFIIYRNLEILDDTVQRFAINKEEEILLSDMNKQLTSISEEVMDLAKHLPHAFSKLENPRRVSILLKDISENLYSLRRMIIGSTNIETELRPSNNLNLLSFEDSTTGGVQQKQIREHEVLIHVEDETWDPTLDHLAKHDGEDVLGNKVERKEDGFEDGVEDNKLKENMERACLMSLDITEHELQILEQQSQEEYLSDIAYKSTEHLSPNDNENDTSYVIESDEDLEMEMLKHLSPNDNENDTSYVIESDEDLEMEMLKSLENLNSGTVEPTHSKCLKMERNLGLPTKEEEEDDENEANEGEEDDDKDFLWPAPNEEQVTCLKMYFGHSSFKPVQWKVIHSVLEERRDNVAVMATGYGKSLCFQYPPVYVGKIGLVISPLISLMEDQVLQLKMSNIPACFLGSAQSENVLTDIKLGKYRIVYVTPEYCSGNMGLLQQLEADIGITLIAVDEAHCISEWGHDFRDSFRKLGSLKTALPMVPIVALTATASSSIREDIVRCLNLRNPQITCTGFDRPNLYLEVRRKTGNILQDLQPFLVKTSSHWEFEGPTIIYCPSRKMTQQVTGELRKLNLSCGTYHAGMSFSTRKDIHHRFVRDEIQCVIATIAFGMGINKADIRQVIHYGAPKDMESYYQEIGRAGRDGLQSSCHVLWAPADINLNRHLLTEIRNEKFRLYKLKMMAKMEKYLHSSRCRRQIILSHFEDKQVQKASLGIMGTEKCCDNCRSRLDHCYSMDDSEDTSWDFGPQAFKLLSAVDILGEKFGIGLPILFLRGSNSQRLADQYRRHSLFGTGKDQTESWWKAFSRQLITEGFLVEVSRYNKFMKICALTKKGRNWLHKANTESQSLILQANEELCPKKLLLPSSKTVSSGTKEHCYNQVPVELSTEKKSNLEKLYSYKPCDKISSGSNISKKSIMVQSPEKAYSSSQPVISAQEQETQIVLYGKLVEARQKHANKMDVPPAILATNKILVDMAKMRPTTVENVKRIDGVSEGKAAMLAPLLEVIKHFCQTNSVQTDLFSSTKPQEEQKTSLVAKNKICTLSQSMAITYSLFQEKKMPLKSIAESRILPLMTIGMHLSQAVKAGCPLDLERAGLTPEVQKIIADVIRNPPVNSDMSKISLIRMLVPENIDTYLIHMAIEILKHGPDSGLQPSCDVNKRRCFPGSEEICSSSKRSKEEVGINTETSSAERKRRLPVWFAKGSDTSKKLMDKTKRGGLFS
row,Structure (SMILES),IC50
1,"Cc1nc2cc(S(=O)(=O)N(C)c3ccc([C@@H]4C[C@H](Oc5ccccc5)C[C@H](C(=O)Nc5ccc(C(F)(F)F)cc5F)[C@H]4C(=O)O)cc3)ccc2n1C (single isomer, unassigned) [Example 153]",3160 nM
2,"Cc1nc2cc(S(=O)(=O)N(C)c3ccc([C@H]4CCC[C@@H](COc5ccc(C(F)(F)F)cc5)[C@@H]4C(=O)O)cc3)cc([C@@H]3CCCNC3)c2n1C (single isomer, unassigned) [Example 209, hydrochloride]",2000 nM
3,"O=C(O)[C@@H]1[C@@H](c2ccc(C3CCS(=O)(=O)C3)cc2)CCC[C@H]1C(=O)Nc1ccc(C(F)(F)F)cc1F (single isomer, unassigned) [Example 231, (1R,2S,6R)-2-(4-((R*)-1,1-dioxidotetrahydrothiophen-3-yl)phenyl)-6-((2-fluoro-4-(trifluoromethyl)phenyl)carbamoyl)cyclohexane-1-carboxylic acid]",316 nM
4,"Cc1nc2cc(S(=O)(=O)N3CCOc4cc([C@@H]5CCC[C@H](C(=O)Nc6ccc(C(F)(F)F)cc6F)[C@H]5C(=O)O)ccc43)ccc2n1C (single isomer, unassigned) [Example 242]",794 nM
5,"CC(=O)N[C@H]1C[C@H](COc2ccc(C(F)(F)F)cc2)[C@@H](C(=O)O)[C@H](c2ccc(N(C)S(=O)(=O)c3ccc4c(c3)nc(C)n4C)cc2)C1 (single isomer, unassigned) [Example 297]",2510 nM
6,"N#Cc1cnnc(-c2ccc(C3CCCC(C(=O)Nc4ccc(C(F)(F)F)cc4F)[C@@H]3C(=O)O)cc2)c1 (stereo in doubt) [Example 39, (1R,2R,6S)-2-(4-(5-cyanopyridazin-3-yl)phenyl)-6-((2-fluoro-4-(trifluoromethyl)phenyl)carbamoyl)cyclohe xane-1-carboxylic acid]",2000 nM
7,"N#Cc1ccncc1-c1ccc(C2CCCC(C(=O)Nc3ccc(C(F)(F)F)cc3F)[C@@H]2C(=O)O)cc1 (stereo in doubt) [Example 49, (1R,2R,6S)-2-(4-(4-cyanopyridin-3-yl)phenyl)-6-((2-fluoro-4-(trifluoromethyl)phenyl)carbamoyl)cyclohe xane-1-carboxylic acid]",1000 nM
8,"CCCO[C@@H]1C[C@H](C(=O)Nc2ccc(C(F)(F)F)cc2F)[C@@H](C(=O)O)[C@H](c2ccc(N(C)S(=O)(=O)c3ccc4c(c3)nc(C)n4C)cc2)C1 (stereo in doubt) [Example 150, rel-(1R,2R,4R,6S)-2-((2-fluoro-4-(trifluoromethyl)phenyl)carbamoyl)-4-propoxy-6-(4-((N,1,2-trimethyl-1H-benzo[d]imidazole)-5-sulfonamido)phenyl)cyclohexane-1-carboxylic acid]",3980 nM
9,"CC(=O)N(C)[C@H]1C[C@H](C(=O)Nc2ccc(C(F)(F)F)cc2F)[C@@H](C(=O)O)[C@H](c2ccc(N(C)S(=O)(=O)c3ccc4c(c3)nc(C)n4C)cc2)C1 (stereo in doubt) [Example 293, rel-(1R,2R,4S,6S)-2-((2-fluoro-4-(trifluoromethyl)phenyl)carbamoyl)-4-(N-methylacetamido)-6-(4-((N,1,2-trimethyl-1H-benzo[d]imidazole)-5-sulfonamido)phenyl)cyclohexane-1-carboxylic acid]",31.6 nM

# Continued, values first:
row,IC50,Structure (SMILES)
1,100 nM,"CO[C@@H]1C[C@H](c2ccc(N(C)S(=O)(=O)c3ccc4c(c3)nc(C)n4C)cc2)[C@@H](C(=O)O)[C@H](C(=O)Nc2ccc(C(F)(F)F)cc2F)C1 (single isomer, unassigned) [Example 146]"
2,7940 nM,"Cc1nc2cc(S(=O)(=O)N(C)c3ccc([C@H]4CCC[C@@H](C(=O)Nc5ccc(C(F)(F)F)cn5)[C@@H]4C(=O)O)cc3)ccc2n1C (single isomer, unassigned) [Example 169]"
3,79.4 nM,"Cc1nc2cc(S(=O)(=O)N(C)c3ccc([C@H]4CCC[C@@H](C(=O)Nc5c(F)cc(C(C)C)cc5F)[C@@H]4C(=O)O)cc3)ccc2n1C (single isomer, unassigned) [Example 170]"
4,158 nM,"Cc1nc2cc(S(=O)(=O)Nc3ccc([C@H]4CCC[C@@H](C(=O)Nc5ccc(C(F)(F)F)cc5F)[C@@H]4C(=O)O)cc3)ccc2n1C (single isomer, unassigned) [Example 223]"
5,251 nM,"CN[C@@H]1C[C@H](C(=O)Nc2ccc(C(F)(F)F)cc2F)[C@@H](C(=O)O)[C@H](c2ccc(N(C)S(=O)(=O)c3ccc4c(c3)nc(C)n4C)cc2)C1 (single isomer, unassigned) [Example 257]"
6,631 nM,"Cc1nc2cc(S(=O)(=O)N(C)c3ccc([C@@H]4CNC[C@H](C(=O)Nc5ccc(C(F)(F)F)cc5F)[C@H]4C(=O)O)cc3)ccc2n1C (single isomer, unassigned) [Example 307]"
7,794 nM,"Cc1nc2cc(S(=O)(=O)N(C)c3ccc([C@@H]4C[C@H](OCC5CCC5)C[C@H](C(=O)Nc5ccc(C(F)(F)F)cc5F)[C@H]4C(=O)O)cc3)ccc2n1C (stereo in doubt) [Example 155, rel-(1R,2R,4R,6S)-4-(cyclobutylmethoxy)-2-((2-fluoro-4-(trifluoromethyl)phenyl)carbamoyl)-6-(4-((N,1,2-trimethyl-1H-benzo[d]imidazole)-5-sulfonamido)phenyl)cyclohexane-1-carboxylic acid]"
8,63.1 nM,"Cc1nc2cc(S(=O)(=O)N(C)c3ccc([C@@H]4C[C@H](N(C)C)C[C@H](C(=O)Nc5ccc(C(F)(F)F)cc5F)[C@H]4C(=O)O)cc3)ccc2n1C (stereo in doubt) [Example 252, rel-(1R,2R,4R,6S)-4-(dimethylamino)-2-((2-fluoro-4-(trifluoromethyl)phenyl)carbamoyl)-6-(4-((N,1,2-trimethyl-1H-benzo[d]imidazole)-5-sulfonamido)phenyl)cyclohexane-1-carboxylic acid]"
9,63.1 nM,"Cc1nc2cc(S(=O)(=O)N(C)c3ccc([C@@H]4C[C@@H](N)C[C@H](C(=O)Nc5ccc(C(F)(F)F)cc5F)[C@H]4C(=O)O)cc3)ccc2n1C (stereo in doubt) [Example 299, rel-(1R,2R,4S,6S)-4-amino-2-((2-fluoro-4-(trifluoromethyl)phenyl)carbamoyl)-6-(4-((N,1,2-trimethyl-1H-benzo[d]imidazole)-5-sulfonamido)phenyl)cyclohexane-1-carboxylic acid]"
10,126 nM,"Cc1nc2cc(S(=O)(=O)N(C)c3ccc([C@@H]4C[C@H](N)C[C@H](C(=O)Nc5ccc(C(F)(F)F)cc5F)[C@H]4C(=O)O)cc3)ccc2n1C (stereo in doubt) [Example 302, rel-(1R,2R,4R,6S)-4-amino-2-((2-fluoro-4-(trifluoromethyl)phenyl)carbamoyl)-6-(4-((N,1,2-trimethyl-1H-benzo[d]imidazole)-5-sulfonamido)phenyl)cyclohexane-1-carboxylic acid]"
11,200 nM,"CC(=O)N1C[C@H](C(=O)Nc2ccc(C(F)(F)F)cc2F)[C@@H](C(=O)O)[C@H](c2ccc(N(C)S(=O)(=O)c3ccc4c(c3)nc(C)n4C)cc2)C1 (stereo in doubt) [Example 309, rel-(3R,4S,5R)-1-acetyl-3-((2-fluoro-4-(trifluoromethyl)phenyl)carbamoyl)-5-(4-((N,1,2-trimethyl-1H-benzo[d]imidazole)-5-sulfonamido)phenyl)piperidine-4-carboxylic acid]"
